Experimental data from US9676789B2, “Aminated derivative of homoharringtonine, preparation method therefor, and application thereof” (HANGZHOU BENSHENG PHARMACEUTICAL CO., LTD., priority 2011, dated 2017).
≈ marks a conversion by molar mass, not a printed value.

How the values were obtained:
[1] = test system: H9 (acute lymphoblastic leukemia, ALL); experiment: MTT leukemia cell growth inhibition, 72 h; assay type: cell-based, human; conditions: Homo sapiens, H9, 72 h; for IC50: read-out: IC50; for IC90: read-out: IC90
Outline: (§1)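 Seed 6000 cells/well; 1640 + 10% FBS; add derivative at various concentrations, mix; 72 h, 37 °C, 5% CO2; MTT read; untreated = 100%.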

[2] = test system: Jurkat (acute lymphoblastic leukemia, ALL); experiment: MTT leukemia cell growth inhibition, 72 h; assay type: cell-based, human; conditions: Homo sapiens; for IC50: read-out: IC50; for IC90: read-out: IC90
Outline: as §1

[3] = test system: K562/adr (drug-resistant, chronic myeloid leukemia, CML); experiment: MTT leukemia cell growth inhibition, 72 h; assay type: cell-based, human; conditions: Homo sapiens, K562/Adr; for IC50: read-out: IC50; for IC90: read-out: IC90
Outline: as §1

[4] = test system: Kasumi-1 (acute myeloid leukemia M2 type, AML-M2); experiment: MTT leukemia cell growth inhibition, 72 h; assay type: cell-based, human; conditions: Homo sapiens, Kasumi-1, 72 h; for IC50: read-out: IC50; for IC90: read-out: IC90
Outline: as §1

[5] = test system: NB4 (acute promyelocytic leukemia, AML); experiment: MTT leukemia cell growth inhibition, 72 h; assay type: cell-based, human; conditions: Homo sapiens, NB4, 72 h; for IC50: read-out: IC50; for IC90: read-out: IC90
Outline: as §1

[6] = test system: RPMI8226 (multiple myeloma); experiment: MTT multiple myeloma cell growth inhibition, 72 h; assay type: cell-based, human; conditions: for IC50 / IC90: Homo sapiens, RPMI-8226, RPMI8226, 72 h; for IC50: read-out: IC50; for IC90: read-out: IC90
Outline: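 RPMI8226 cells at 6000 per well in 1640 medium with 10% fetal bovine serum, exposed to homoharringtonine derivatives at various concentrations. Incubation 72 h at 37° C, 5% CO2; viable cells read by MTT.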

[7] = test system: A549 (human lung cancer); experiment: MTT solid tumor cell growth inhibition, 72 h; assay type: cell-based; conditions: Homo sapiens, A549, 72 h; for IC50: read-out: IC50; for IC90: read-out: IC90
Outline: (§2)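 Steps: seed 4000 cells per well in 10% FBS DMEM high glucose; incubate 24 h at 37° C under 5% CO2; add homoharringtonine derivatives at several concentrations; incubate 72 h; determine viable cells by MTT and calculate % viability versus untreated control.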

[8] = test system: Becap37 (human breast cancer cell); experiment: MTT solid tumor cell growth inhibition, 72 h; assay type: cell-based; conditions: Homo sapiens, Becap37, 72 h; for IC50: read-out: IC50; for IC90: read-out: IC90
Outline: as §2

[9] = test system: Hela (human cervical cancer cell); experiment: MTT solid tumor cell growth inhibition, 72 h; assay type: cell-based; conditions: Homo sapiens, HeLa; for IC50: read-out: IC50; for IC90: read-out: IC90
Outline: as §2

[10] = test system: Hep-2 (human hepatocellular carcinoma); experiment: MTT solid tumor cell growth inhibition, 72 h; assay type: cell-based; conditions: Homo sapiens, HEp-2, Hep2, 72 h; for IC50: read-out: IC50; for IC90: read-out: IC90
Outline: as §2

[11] = test system: Huh7 (human liver cancer cell); experiment: MTT solid tumor cell growth inhibition, 72 h; assay type: cell-based; conditions: Homo sapiens, Huh-7, Huh7, 72 h; for IC50: read-out: IC50; for IC90: read-out: IC90
Outline: as §2

[12] = test system: MGC 803 (human gastric cancer cell); experiment: MTT solid tumor cell growth inhibition, 72 h; assay type: cell-based; conditions: Homo sapiens, MGC 803, 72 h; for IC50: read-out: IC50; for IC90: read-out: IC90
Outline: as §2

[13] = test system: RKO (human colon adenocarcinoma cell); experiment: MTT solid tumor cell growth inhibition, 72 h; assay type: cell-based; conditions: Homo sapiens; for IC50: read-out: IC50; for IC90: read-out: IC90
Outline: as §2

[14] = test system: CNE (nasopharyngeal carcinoma cell); experiment: MTT solid tumor cell growth inhibition, 72 h; assay type: cell-based, human; conditions: Homo sapiens; for IC50: read-out: IC50; for IC90: read-out: IC90
Outline: as §2

[15] = test system: CaES-17 (esophageal cancer cell); experiment: MTT solid tumor cell growth inhibition, 72 h; assay type: cell-based, human; conditions: Homo sapiens, CaEs17, CaES-17, 72 h; for IC50: read-out: IC50; for IC90: read-out: IC90
Outline: as §2

[16] = test system: MG63 (osteosarcoma); experiment: MTT solid tumor cell growth inhibition, 72 h; assay type: cell-based, human; conditions: Homo sapiens, MG 63, 72 h; for IC50: read-out: IC50; for IC90: read-out: IC90
Outline: as §2

[17] = test system: PANC-1 (pancreatic cancer); experiment: MTT solid tumor cell growth inhibition, 72 h; assay type: cell-based, human; conditions: Homo sapiens, PANC-1, 72 h; for IC50: read-out: IC50; for IC90: read-out: IC90
Outline: as §2

[18] = test system: PC-3 (prostate cancer); experiment: MTT solid tumor cell growth inhibition, 72 h; assay type: cell-based, human; conditions: Homo sapiens, PC-3, 72 h; for IC50: read-out: IC50; for IC90: read-out: IC90
Outline: as §2

[19] = test system: SK-OV-3 (ovarian cancer cell); experiment: MTT solid tumor cell growth inhibition, 72 h; assay type: cell-based, human; conditions: Homo sapiens, SK-OV-3, 72 h; for IC50: read-out: IC50; for IC90: read-out: IC90
Outline: as §2

[20] = test system: U87 MG (malignant glioma cell); experiment: MTT solid tumor cell growth inhibition, 72 h; assay type: cell-based, human; conditions: Homo sapiens, U-87 MG; for IC50: read-out: IC50; for IC90: read-out: IC90
Outline: as §2

[21] = test system: K562/adr, NB4, Kasumi-1 and H9; experiment: Anti-leukemia activity, summary over cell lines; assay type: cell-based, human; conditions: result in words, summary of Table 1
Description: Leukemia cell lines: K562/adr (drug-resistant, chronic myeloid leukemia, CML), NB4 (acute promyelocytic leukemia, AML), Kasumi-1 (acute myeloid leukemia M2 type, AML-M2), Jurkat (acute lymphoblastic leukemia, ALL), all of which are donated by Cancer Research Institute of Zhejiang University, China; and H9 (acute lymphoblastic leukemia, ALL), which is purchased from China Center for Type Culture Collection.
Obtaining 6000 well-growing leukemia cells and inoculating them into wells of a 96-well cell culture plate. The culture medium is the 1640 cell culture medium containing 10% fetal bovine serum. After adding the homoharringtonine derivatives of different concentrations and mixing uniformly, placing the plate in a carbon dioxide cell incubator (5% CO2) at 37° C. and incubating for 72 hours. Then the viable cell concentration is determined by the MTT method. In this experiment, the cell viability in control group (not treated with any compound) is set as 100%.

[22] = test system: A549, PANC-1, Becap37, MG63, Huh7, RKO, Hela, CaES-17, CNE, Hep-2, PC-3 and SK-OV-3; experiment: Anti-human solid tumor effect, summary over cell lines; assay type: cell-based; conditions: result in words, summary of Table 2
Description: Human solid tumor cell lines: Hep-2 ([…]), A549 (human lung cancer), CaES-17 (esophageal cancer cell), PC-3 (prostate cancer), CNE (nasopharyngeal carcinoma cell), and SK-OV-3 (ovarian cancer cell), all of which are purchased from China Center For Type Culture Collection; RKO (human colon adenocarcinoma cell), MGC 803 (human gastric cancer cell), MG63 (osteosarcoma) and U87 MG (malignant glioma cell), all of which are purchased from Fuxiang Bio-tech Co. Ltd., Shanghai, China; PANC-1 (pancreatic cancer), Huh7 (human liver cancer cell), Becap37 (human breast cancer cell), and Hela (human cervical cancer cell), all of which are donated by Cancer Research Institute of Zhejiang University, China.
Obtaining 4000 well-growing human solid tumor cells and inoculating them into wells of a 96-well cell culture plate. The culture medium is DMEM High Glucose cell culture medium containing 10% fetal bovine serum. The plate is placed in a carbon dioxide cell incubator (5% CO2) at 37° C. and incubating for 24 hours. After adding the homoharringtonine derivatives of different concentration and mixing uniformly, the plate is placed in a carbon dioxide cell incubator (5% CO2) at 37° C. and incubating for 72 hours. Then the viable cell concentration is determined by the MTT method and the cell viability (%) after drug treatment is calculated. In this experiment, the cell viability of control group (not treated with any compound) is set as 100%.

## COC1=C[C@]23CCCN2CCc2cc4c(cc2[C@@H]3[C@@H]1OC(=O)[C@@](O)(CCCC(C)(C)O)CC(=O)N1CCC(N(C)C)CC1)OCO4 [BS-HH-050]
[1]
  IC50: 0.13 µg/mL (≈ 0.203 µM)
  IC90: 0.35 µg/mL (≈ 0.545 µM)
[2]
  IC50: 0.12 µg/mL (≈ 0.187 µM)
  IC90: 16 µg/mL (≈ 24.9 µM)
[3]
  IC50: 0.72 µg/mL (≈ 1.12 µM)
  IC90: 8.99 µg/mL (≈ 14 µM)
[4]
  IC50: 0.041 µg/mL (≈ 0.0639 µM)
  IC90: 0.18 µg/mL (≈ 0.28 µM)
[5]
  IC50: 0.08 µg/mL (≈ 0.125 µM)
  IC90: 0.17 µg/mL (≈ 0.265 µM)
[6]
  IC50: 0.1 µg/mL (≈ 0.156 µM)
  IC90: 0.38 µg/mL (≈ 0.592 µM)
[7]
  IC50: 0.7 µg/mL (≈ 1.09 µM)
  IC90: > 16 µg/mL
[8]
  IC50: 0.26 µg/mL (≈ 0.405 µM)
  IC90: 16 µg/mL (≈ 24.9 µM)
[9]
  IC50: 0.46 µg/mL (≈ 0.717 µM)
  IC90: > 16 µg/mL
[10]
  IC50: 0.31 µg/mL (≈ 0.483 µM)
  IC90: > 16 µg/mL
[11]
  IC50: 0.1 µg/mL (≈ 0.156 µM)
  IC90: 16 µg/mL (≈ 24.9 µM)
[12]
  IC50: 0.18 µg/mL (≈ 0.28 µM)
  IC90: 0.48 µg/mL (≈ 0.748 µM)
[13]
  IC50: 0.053 µg/mL (≈ 0.0826 µM)
  IC90: 0.23 µg/mL (≈ 0.358 µM)
[14]
  IC50: 0.15 µg/mL (≈ 0.234 µM)
  IC90: > 16 µg/mL
[15]
  IC50: 0.46 µg/mL (≈ 0.717 µM)
  IC90: 16 µg/mL (≈ 24.9 µM)
[16]
  IC50: 0.19 µg/mL (≈ 0.296 µM)
  IC90: 7.22 µg/mL (≈ 11.2 µM)
[17]
  IC50: 0.23 µg/mL (≈ 0.358 µM)
  IC90: > 16 µg/mL
[18]
  IC50: 0.45 µg/mL (≈ 0.701 µM)
  IC90: > 16 µg/mL
[19]
  IC50: 0.57 µg/mL (≈ 0.888 µM)
  IC90: > 16 µg/mL
[20]
  IC50: 0.24 µg/mL (≈ 0.374 µM)
  IC90: 1.06 µg/mL (≈ 1.65 µM)
[21]
  anti-K562/adr, anti-NB4, anti-Kasumi-1 and anti-H9 activity: strong
[22]
  anti-A549, anti-PANC-1, anti-Becap37, anti-MG63, anti-Huh7, anti-RKO, anti-Hela, anti-CaES-17, anti-CNE, anti-Hep-2, anti-PC-3 and anti-SK-OV-3 effect: strong

## COC1=C[C@]23CCCN2CCc2cc4c(cc2[C@@H]3[C@@H]1OC(=O)[C@@](O)(CCCC(C)(C)O)CC(=O)NCc1ccc(C)o1)OCO4 [BS-HH-054, O-3-[(2R)-2,6-dihydroxy-2-(2′-(5-methyl)furan-2-methylamino-2′-oxoethyl)-6-methylheptanoyl]cephalotaxine]
[1]
  IC50: 0.17 µg/mL (≈ 0.272 µM)
  IC90: 0.43 µg/mL (≈ 0.688 µM)
[2]
  IC50: 0.11 µg/mL (≈ 0.176 µM)
  IC90: 16 µg/mL (≈ 25.6 µM)
[3]
  IC50: 0.66 µg/mL (≈ 1.06 µM)
  IC90: 4.4 µg/mL (≈ 7.04 µM)
[4]
  IC50: 0.053 µg/mL (≈ 0.0848 µM)
  IC90: 0.19 µg/mL (≈ 0.304 µM)
[5]
  IC50: 0.09 µg/mL (≈ 0.144 µM)
  IC90: 0.2 µg/mL (≈ 0.32 µM)
[6]
  IC50: 0.092 µg/mL (≈ 0.147 µM)
  IC90: 0.24 µg/mL (≈ 0.384 µM)
[6]; result in words, summary of Table 2
  anti-RPMI8226 (multiple myeloma) effect: strong
[7]
  IC50: 0.72 µg/mL (≈ 1.15 µM)
  IC90: > 16 µg/mL
[8]
  IC50: 0.14 µg/mL (≈ 0.224 µM)
  IC90: 16 µg/mL (≈ 25.6 µM)
[9]
  IC50: 0.3 µg/mL (≈ 0.48 µM)
  IC90: > 16 µg/mL
[10]
  IC50: 0.23 µg/mL (≈ 0.368 µM)
  IC90: > 16 µg/mL
[11]
  IC50: 0.12 µg/mL (≈ 0.192 µM)
  IC90: 16 µg/mL (≈ 25.6 µM)
[12]
  IC50: 0.15 µg/mL (≈ 0.24 µM)
  IC90: 6 µg/mL (≈ 9.6 µM)
[13]
  IC50: 2.75 µg/mL (≈ 4.4 µM)
  IC90: 6.97 µg/mL (≈ 11.2 µM)
[14]
  IC50: 0.15 µg/mL (≈ 0.24 µM)
  IC90: 16 µg/mL (≈ 25.6 µM)
[15]
  IC50: 1.37 µg/mL (≈ 2.19 µM)
  IC90: > 16 µg/mL
[16]
  IC50: 0.12 µg/mL (≈ 0.192 µM)
  IC90: 8.07 µg/mL (≈ 12.9 µM)
[17]
  IC50: 0.15 µg/mL (≈ 0.24 µM)
  IC90: > 16 µg/mL
[18]
  IC50: 0.46 µg/mL (≈ 0.736 µM)
  IC90: > 16 µg/mL
[19]
  IC50: 0.47 µg/mL (≈ 0.752 µM)
  IC90: > 16 µg/mL
[20]
  IC50: 0.32 µg/mL (≈ 0.512 µM)
  IC90: 16 µg/mL (≈ 25.6 µM)
[21]
  anti-K562/adr, anti-NB4, anti-Kasumi-1 and anti-H9 activity: strong
[22]
  anti-A549, anti-PANC-1, anti-Becap37, anti-MG63, anti-Huh7, anti-RKO, anti-Hela, anti-CaES-17, anti-CNE, anti-Hep-2, anti-PC-3 and anti-SK-OV-3 effect: strong
